Experimental data: patent US10738093B2, “Discovery of cationic nonribosomal peptides as Gram-negative antibiotics through global genome mining” (The Hong Kong University of Science and Technology, priority 2018, dated 2020)
In brackets after ≈: the same amount, converted by molar mass. Where two headings read alike, the source gives them in different places. Positions of bridges follow the written chain, without caps; N, C: chain ends. Non-standard residues stand in square brackets, D forms with d. Residues, ends and D or L forms follow the SMILES beside them. *: point of attachment. Octanoyl(7-Me) = CC(C)CCCCCC(=O)*; dOrn = NCCC[C@@H](N)C(=O)O; Orn = NCCC[C@H](N)C(=O)O

Experiments:
[1] = tested on: Enterobacter cloacae NRRL-B-413; format: cell-based; settings: Enterobacter cloacae NRRL-B-413; for MIC En: Table 2
Procedure: (§1) Minimum inhibitory concentration (MIC) was determined by broth microdilution according to CLSI guidelines. The test medium for most species was Mueller-Hinton broth (MHB). Bacteria were grown overnight to early stationary phase and adjusted in MHB to 5.0×10^5 colony-forming units per mL (c.f.u./mL) in the wells of 96-well microtiter plates, mixed with varying concentrations of test compounds and incubated at 37° C. for 24 h. […] MHBs containing 10% fetal bovine serum (Gibco), 21 mM MgCl, or 1.0 mg/ml LPS (lipopolysaccharides from Escherichia coli O55:B5, Sigma-Aldrich) were used to test their inhibitory effects.

[2] = tested on: Candida albicans; format: cell-based; settings: Candida albicans; for MIC Ca: Table 2
Procedure: as §1

[3] = tested on: Bacillus subtilis 168; format: cell-based; settings: for MIC Bs: Table 2, B. subtilis 168
Procedure: as §1

[4] = tested on: Acinetobacter baumannii; format: cell-based; settings: Acinetobacter baumannii; for MIC Ab: Table 2
Procedure: as §1

[5] = tested on: Methicillin-resistant Staphylococcus aureus ATCC 43300; format: cell-based; settings: for MIC MRSA: Table 2, Methicillin-resistant Staphylococcus aureus ATCC 43300
Procedure: as §1

[6] = tested on: Pseudomonas aeruginosa PAO1; format: cell-based
Procedure: as §1

[7] = tested on: Escherichia coli ATCC 25922; experiment: microbe, parasite or virus in culture; format: cell-based
Procedure: as §1

[8] = tested on: Saccharomyces cerevisiae VL-48; experiment: MIC, Saccharomyces cerevisiae; format: cell-based; settings: for MIC Sc: Table 2, Saccharomyces cerevisiae VL-48
Procedure: as §1

[9] = tested on: Escherichia coli ATCC 25922; experiment: Resistance acquisition during serial passaging; format: cell-based; settings: serial passaging at subinhibitory concentrations over 30 days
Procedure: Escherichia coli ATCC 25922 was inoculated into MHB overnight at 37° C. with continuous shaking. Cells were diluted 10,000 times in MHB to about 1×10^6 c.f.u./mL. […] Plates with bacteria were incubated at 37° C. without shaking. […] This process was repeated for 30 d, and the final MIC was confirmed by the same antibacterial assay described above. The experiment was performed in quadruplicate, and on each day, the sample that developed the highest resistance was measured to plot the curve.

[10] = tested on: E. coli Top10; format: cell-based, Escherichia coli; settings: E. coli Top10
Procedure: as §1

[11] = tested on: Colistin-resistant E. coli (E. coli ATCC 25922 carrying mcr-1); format: cell-based, Escherichia coli
Procedure: as §1

[12] = tested on: Klebsiella pneumoniae NRRL-B-408; format: cell-based; settings: Klebsiella pneumoniae NRRL-B-408
Procedure: as §1

[13] = LPS binding by isothermal titration calorimetry; parameters: species or system Escherichia coli; settings: ITC, FIGS. 18a-18b
Procedure: Microcalorimetric experiments of peptide binding to LPS were performed on an MCS isothermal titration calorimeter (ITC) (Microcal, Northampton, Mass.) at 37° C. LPS was prepared as a 50 μM aqueous suspension in 20 mM HEPES (pH 7.0) buffer by suspension, sonication and temperature cycling between 5° C. and 70° C. This suspension was stored at 4° C. overnight prior to use. 100 μM peptide solutions (brevicidine and polymyxin B) were prepared in the same buffer and all solutions were degassed prior to use by stirring under vacuum for 5 min at 37° C. After thermal equilibration, 5 μL aliquots of the peptide solution were added every 3 min into the lipid-containing cell at 37° C. and stirred constantly. The change in heat during the titration steps was registered in real time and raw data were processed using the Origin® 7 software provided with the instrument. In control experiments, the corresponding peptide solution (or LPS solution) was injected into the buffer without LPS (or without peptide).

[14] = tested on: K. pneumoniae NRRL-B-3521; format: cell-based, Klebsiella pneumoniae; settings: K. pneumoniae NRRL-B-3521
Procedure: as §1

[15] = tested on: E. coli Top10; experiment: Time-kill assay; format: cell-based, Escherichia coli; settings: 10 times the MIC
Procedure: An overnight culture of E. coli Top10 or Pseudomonas aeruginosa PAO1 cells was diluted 1:10,000 in MHB and incubated at 37° C. with agitation at 180 rpm for 2 h (early exponential). The bacteria were then challenged with antibiotics at 10×MIC, brevicidine (20 μg/ml), laterocidine (20 μg/ml) or polymyxin B (10 μg/ml) at room temperature without shaking. An untreated sample of cells was used as a negative control. At intervals, 10 μL aliquots were removed, centrifuged at 10,000 g for 1 min and resuspended in 1.0 mL of sterile PBS. Tenfold-serially-diluted suspensions were plated on MHB agar plates and incubated at 37° C. overnight. Colonies were counted and the number of c.fu. per mL was calculated. For analysis of lysis, 300 μL of culture (OD600=1.0) were treated with 10×MIC of antibiotics for 24 h. Experiments were performed in triplicate.

[16] = tested on: E. cloacae NRRL-B-425; format: cell-based, Enterobacter cloacae; settings: E. cloacae NRRL-B-425
Procedure: as §1

[17] = Table 2, Pseudomonas aeruginosa PAO1
[18] = Table 2, Escherichia coli ATCC 25922
[19] = E. coli ATCC 25922 + LPS (1.0 mg L^−1)
[20] = E. coli ATCC 25922 + Mg^2+ (21 mM)

Molecule: CC[C@H](C)[C@@H]1NC(=O)[C@@H](NC(=O)[C@@H](N)Cc2c[nH]c3ccccc23)[C@@H](C)OC(=O)[C@@H](CO)NC(=O)CNC1=O [Compound 4] (H-WTIG[dS]; ester 2-C)
- MIC En [1]: ND (ND >64 μg/ml)
- MIC Ca [2]: ND (ND >64 μg/ml)
- MIC Bs [3]: ND (ND >64 μg/ml)
- MIC Ab [4]: ND (ND >64 μg/ml)
- MIC MRSA [5]: ND (ND >64 μg/ml)
- MIC Pa [6, 17]: ND (ND >64 μg/ml)
- MIC Ec [7, 18]: ND (ND >64 μg/ml)
- MIC Sc [8]: ND (ND >64 μg/ml)

Molecule: NCCC[C@H](N)C(=O)NCC(=O)N[C@H](CCCN)C(=O)O [Compound 7] (H-[Orn]-Gly-[dOrn]-OH)
- MIC Bs [3]: ND (ND >64 μg/ml)
- MIC MRSA [5]: ND (ND >64 μg/ml)
- MIC Pa [6, 17]: ND (ND >64 μg/ml)
- MIC Ec [7, 18]: ND (ND >64 μg/ml)

Molecule: CC[C@H](C)[C@@H]1NC(=O)[C@@H](NC(=O)[C@@H](N)Cc2c[nH]c3ccccc23)[C@@H](C)OC(=O)CNC(=O)CNC(=O)[C@H](CC(N)=O)NC1=O [Compound 8] (H-WTINGG; ester 2-C)
- MIC Bs [3]: ND (ND >64 μg/ml)
- MIC MRSA [5]: ND (ND >64 μg/ml)
- MIC Pa [6, 17]: ND (ND >64 μg/ml)
- MIC Ec [7, 18]: ND (ND >64 μg/ml)

Molecule: CC(C)CCCCCC(=O)N[C@H](CO)C(=O)N[C@H](Cc1ccc(O)cc1)C(=O)N[C@H](Cc1c[nH]c2ccccc12)C(=O)N[C@H](CCCN)C(=O)N[C@@H](CCCN)C(=O)NCC(=O)N[C@H](CCCN)C(=O)O [Compound 9] ({Octanoyl(7-Me)}-[dS][dY][dW][dOrn][Orn]G[dOrn]-OH)
- MIC Bs [3]: ND (ND >64 μg/ml)
- MIC MRSA [5]: ND (ND >64 μg/ml)
- MIC Pa [6, 17]: ND (ND >64 μg/ml)
- MIC Ec [7, 18]: ND (ND >64 μg/ml)

Molecule: CC(C)CCCCCC(=O)N[C@H](CO)C(=O)N[C@H](Cc1ccc(O)cc1)C(=O)N[C@H](Cc1c[nH]c2ccccc12)C(=O)N[C@H](CCCN)C(=O)O [Compound 10] ({Octanoyl(7-Me)}-[dS][dY][dW][dOrn]-OH)
- MIC Bs [3]: ND (ND >64 μg/ml)
- MIC MRSA [5]: ND (ND >64 μg/ml)
- MIC Pa [6, 17]: ND (ND >64 μg/ml)
- MIC Ec [7, 18]: ND (ND >64 μg/ml)

Molecule: CC[C@H](C)[C@H](NC(=O)[C@@H](NC(=O)[C@H](Cc1c[nH]c2ccccc12)NC(=O)[C@@H](CCCN)NC(=O)CNC(=O)[C@@H](CCCN)NC(=O)[C@@H](CCCN)NC(=O)[C@@H](Cc1c[nH]c2ccccc12)NC(=O)[C@@H](Cc1ccc(O)cc1)NC(=O)[C@@H](CO)NC(=O)CCCCCC(C)C)[C@@H](C)O)C(=O)N[C@@H](CC(N)=O)C(=O)NCC(=O)NCC(=O)O [Compound 11] ({Octanoyl(7-Me)}-[dS][dY][dW][dOrn][dOrn]G[dOrn]WTINGG-OH)
- MIC Bs [3]: ND (ND >64 μg/ml)
- MIC MRSA [5]: ND (ND >64 μg/ml)
- MIC Pa ([6]; PAO1): 8 µg/mL (≈ 4.93 µM)
- MIC Ec ([7]; ATCC 25922): 16 µg/mL (≈ 9.86 µM)

Molecule: C[C@H]1COc2c(N3CCN(C)CC3)c(F)cc3c(=O)c(C(=O)O)cn1c23 [Levofloxacin, reference compound]
- MIC ([7]; Escherichia coli, ATCC25922, positive control of the mouse thigh study, read-out: MIC): 0.032 µg/mL (≈ 0.0886 µM)

Molecule: O=C(O)c1cn(C2CC2)c2cc(N3CCNCC3)c(F)cc2c1=O [ciprofloxacin, reference compound]
- development of resistance [9]: rapidly developed resistance

Molecule: colistin [reference compound]
- MIC ([6]; Pseudomonas aeruginosa PAO1): 1 µg/mL
- MIC ([7]; E. coli ATCC 25922 + 10% serum): 2 to 4 µg/mL
- MIC [7, 19]: >64 µg/mL
- MIC [7, 20]: >64 µg/mL
- MIC ([7]; Escherichia coli ATCC 25922): 2 µg/mL
- MIC [10]: 2 µg/mL
- MIC [11]: 16 µg/mL

Molecule: polymyxin B [reference compound]
- MIC [1]: 8 µg/mL
- MIC En [1]: 8 µg/mL
- MIC [2]: >64 µg/mL
- MIC Ca [2]: ND (ND >64 μg/ml)
- MIC [12]: 16 µg/mL
- MIC ([3]; Bacillus subtilis 168): 4 µg/mL
- MIC Bs [3]: 4 µg/mL
- MIC [4]: 4 µg/mL
- MIC Ab [4]: 4 µg/mL
- MIC ([5]; Staphylococcus aureus (MRSA)): 32 µg/mL
- MIC MRSA [5]: 32 µg/mL
- MIC ([6]; Pseudomonas aeruginosa PAO1): 1 µg/mL
- MIC Pa [6, 17]: 1 µg/mL
- MIC ([7]; E. coli ATCC 25922 + 10% serum): 1 to 2 µg/mL
- MIC [7, 19]: >64 µg/mL
- MIC [7, 20]: >64 µg/mL
- MIC ([7]; Escherichia coli ATCC 25922): 1 µg/mL
- MIC Ec [7, 18]: 1 µg/mL
- binding to LPS [13]: strong binding to LPS
- MIC [14]: 2 µg/mL
- time of exposure to significant reduction of viable cells [15]: 5 min
- time to killing all cells [15]: ≤ 30 min
- MIC [10]: 2 µg/mL
- MIC [11]: 16 µg/mL
- MIC ([8]; Saccharomyces cerevisiae): >64 µg/mL
- MIC Sc [8]: ND (ND >64 μg/ml)
- MIC [16]: 64 µg/mL
